{
  "source": "patent US9993570B2",
  "about": "“Radiolabeled tracers for poly (ADP-ribose) polymerase-1 (PARP-1), methods and uses therefor” (Washington University, priority 2014, dated 2018)",
  "key": {"[1]": {"system": "Lung cell lines NCI-h69 and NCI-h82", "assay": "[18F]WC-4-138 uptake in cell culture, small cell lung cancer lines", "assay_type": "cell-based", "conditions": "NCI-h69 and NCI-h82, incubation 5, 30 or 60 minutes, normalized to protein", "experimental": "In these experiments, the head and neck squamous cell carcinoma lines SCC1, SCC15, and SCC25 (ATCC) were propagated in Dulbecco's Modified Eagle's Medium (DMEM, Gibco) supplemented with 10% Fetal Bovine Serum (FBS, Gibco), Penicillin-Streptomycin (P/S, Gibco), and 100 ng/ml hydrocortisone (Sigma-Aldrich). The small cell lung cancer lines NCI-h69 and NCI-h82 (ATCC) were propagated m RPMI Medium (Gibco) supplemented with 10% FBS and 1% P/S. The human breast cancer cell line MDA-MB-231 (ATCC) was propagated in Eagle's Minimum Essential Medium (Gibco) supplemented with 5% FBS, 2% Vitamins for MEM (Gibco), 1% 200 mM L-glutamine (Gibco), 1% 10 mM Non-Essential Amino Acid (NEAA, Gibco).\nFor each experimental replicate, approximately 1 μCi of [^18F]WC-4-138 was diluted in 1 ml of cell culture medium and added to 10^6 cells. […] Radioactivity was measured in the collected medium, PBS, or cell pellets. Protein from the cell pellet was quantified using a […]. All data were decay-corrected and normalized to total protein quantity in the cell pellet. […]\nThe head and neck cell lines SCC1 and SCC25 constitutively take up small amounts of tracer, registering as 0.001-0.002 μCi/μg in the cell pellet (FIG. 5A). […] PARP activity was measured in HNSCC or lung SCLC cells. […]"}, "[2]": {"assay": "Metabolic stability of [18F]WC-4-138 in mice (percent parent by HPLC)", "assay_type": "in vivo", "conditions": "C57BL/6J mice", "experimental": "In these experiments, the metabolic stability of [^18]-WC-4-138 was assessed after injecting 400 μCi into the tail veins of adult male C57BL/6J mice (Jackson Laboratory). Mice were sacrificed by cervical dislocation 5 or 30 minutes post-injection. […] The plasma was separated from the red blood cells by centrifugation at 14000 rpm. Plasma (100 μl) was mixed with acetonitrile at a 1:1.5 ratio and centrifuged at 14000 rpm. Radioactivity associated with the red blood cell pellet, whole plasma, and acetonitrile-soluble and insoluble fractions was measured. The liver of each animal was also collected at the indicated times and frozen on dry ice. Livers were homogenized in 2 ml acetonitrile and 1 ml of the homogenized liver was centrifuged at 14000 rpm. Radioactivity associated with the supernatant and pellet was measured. Acetonitrile-soluble plasma or liver supernatant (100 μl) was mixed at a 1:1 ratio with water and separated by reverse phase HPLC. The parent compound was also separated by HPLC as a reference. The radioactivity associated with each HPLC fraction was measured. The percent parent compound of each sample was calculated as the portion radioactivity associated with the HPLC fractions expected to contain the parent compound."}},
  "data": [
    {"smiles": "O=C1NCCn2c(-c3ccc(OCC[18F])cc3)nc3cccc1c32", "note": "[[^18F]12]", "values": [
      {"measurement": "tracer uptake in the cell pellet", "setting": "[1]", "result": "0.004-0.006 μCi/μg"},
      {"measurement": "percent parent compound relative to the reference compound, blood", "setting": "[2]; 5 minutes post-injection", "result": 50, "unit": "%"},
      {"measurement": "percent parent compound relative to the reference compound, liver", "setting": "[2]; 5 minutes post-injection", "result": "about 80%"},
      {"measurement": "percent parent compound relative to the reference compound, blood", "setting": "[2]; 30 minutes post-injection", "result": "about 10%"},
      {"measurement": "percent parent compound relative to the reference compound, liver", "setting": "[2]; 30 minutes post-injection", "result": "about 70%"}
    ]}
  ]
}
